For one test, the system named is AGS cells (KRAS G12D). Description: Cell viability assay (Cell Counting Kit-8, 3-day). Particulars: Homo sapiens, 72 h, 72 hrs incubation. It counts as cell-based, human. The essentials:
(§1)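 Seed NCI-H358 5,000/well, AGS and SW620 2,000/well; overnight. Compound, 0.5% DMSO final, 72 hrs. CCK-8 2 hrs, OD450–OD650. IC50: 4-parameter fit.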
(In general: Tetrazolium assays rely on reduction of a dye to a coloured formazan, in cell work by metabolically active cells.)

Test [1] relates to NCI-H358 cells (KRAS G12C). Description: Cell viability assay (Cell Counting Kit-8, 3-day). It counts as cell-based, human. Particulars: Homo sapiens, NCI-H358, 72 h, NCI-H358, 72 hrs incubation. A digest of the protocol:
as §1

A further test concerns SW620 cells (KRAS G12V). Description: Cell viability assay (Cell Counting Kit-8, 3-day). It counts as cell-based, human. Particulars: Homo sapiens, SW-620; SW620, 72 hrs incubation. The essentials: as §1
In a further test the target is KRAS G12C-BRAF complex (Homo sapiens (Human), UniProt P01116+P62937, G12C). Description: KRAS-BRAF with CYPA (500 nM) interaction assay (TR-FRET, Example 136). Format: biochemical. The settings on record: KRAS G12C-BRAF disruption. Background: Time-resolved FRET reads energy transfer from a long-lived donor to a nearby acceptor.
Chain of KRAS G12C-BRAF complex (P01116-2 other isoform, or with tags, fused parts or gaps G12C): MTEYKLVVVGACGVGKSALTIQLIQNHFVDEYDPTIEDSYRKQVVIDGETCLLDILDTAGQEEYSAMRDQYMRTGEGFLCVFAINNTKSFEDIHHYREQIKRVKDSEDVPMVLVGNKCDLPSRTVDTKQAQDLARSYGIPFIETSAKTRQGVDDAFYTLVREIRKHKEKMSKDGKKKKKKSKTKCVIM
Chain of KRAS G12C-BRAF complex (P62937 whole entry): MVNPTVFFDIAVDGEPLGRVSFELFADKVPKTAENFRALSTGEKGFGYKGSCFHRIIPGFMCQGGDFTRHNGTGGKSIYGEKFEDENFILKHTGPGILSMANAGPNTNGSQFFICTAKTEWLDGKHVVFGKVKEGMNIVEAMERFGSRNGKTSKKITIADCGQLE
For test [2], the system named is phosphorylation of ERK, KRAS G12C in NCI-H358 cells. Description: pERK inhibition assay. It counts as cell-based. Particulars: Homo sapiens, NCI-H358, 4 h. A digest of the protocol:
(§2)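 Phospho-ERK quantified by in-cell ELISA with TMB read-out at OD450 following 4 h compound exposure (final 0.5% DMSO). Cell lines were SW620 (KRAS G12V), AGS (G12D) and NCI-H358 (G12C), grown in RPMI-1640 with 10% FBS. A 4-parameter sigmoidal model gave the IC50.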

The subject of test [3] is phosphorylation of ERK, KRAS G12D in AGS cells. Description: pERK inhibition assay. Format: cell-based. The settings on record: Homo sapiens, AGS, 4 h. A digest of the protocol:
as §2

For test [4], the system named is phosphorylation of ERK, KRAS G12V in SW620. In words: pERK inhibition assay. Format: cell-based. Particulars: Homo sapiens, SW-620, 4 h, SW620 cells. The essentials: as §2

For `CO[C@@H](C)c1ncc(N2CCN3CCOC[C@@H]3C2)cc1-c1c2c3cc(cc4c3n1CCC4)-c1csc(n1)C[C@H](NC(=O)[C@H]1C[C@@H]1C)C(=O)N1CCC[C@H](N1)C(=O)OCC(C)(C)C2` (atropisomer, axis not shown; (M)) [Example 25, (1S,2S)-N-[(7S,13S)-(20M)-20-[5-[(9αS)-3,4,6,7,9,9a-hexahydro-1H-pyrazino[2,1-c][1,4]oxazin-8-yl]-2-[(1S)-1-methoxyethyl]-3-pyridyl]-17,17-dimethyl-8,14-dioxo-15-oxa-4-thia-9,21,30,31-tetrazahexacyclo[23.3.1.1^2,5.1^9,13.0^19,27.0^21,26]hentriaconta-1 (28),2,5 (31),19,25 (29),26-hexaen-7-yl]-2-methyl-cyclopropanecarboxamide], the IC50 (in general, the concentration that inhibits the measured activity by half) is 32.6 nM in the test with AGS cells (KRAS G12D); 6.7 nM in test [1]; 1.8 nM in the test with SW620 cells (KRAS G12V); 32.6 nM at KRAS G12C-BRAF complex; 1 nM in test [2]; 11.3 nM in test [3]. In test [4], this molecule displayed an IC50 of 0.8 nM.

For the molecule `CO[C@@H](C)c1ncc(N2CCOCC2)cc1-c1c2c3cc(cc4c3n1CCO4)-c1csc(n1)C[C@H](NC(=O)[C@H]1[C@H](C)[C@@H]1C)C(=O)N1CCC[C@H](N1)C(=O)OCC(C)(C)C2` (atropisomer, axis not shown; (M)) [Example 68, (1r,2R,3S)-N-[(7S,13S)-(20M)-20-[2-[(1S)-1-methoxyethyl]-5-morpholino-3-pyridyl]-17,17-dimethyl-8,14-dioxo-15,24-dioxa-4-thia-9,21,30,31-tetrazahexacyclo[23.3.1.1^2,5.1^9,13.0^19,27.0^21,26]hentriaconta-1 (29),2,5 (31),19,25,27-hexaen-7-yl]-2,3-dimethyl-cyclopropanecarboxamide], the 50% inhibitory concentration (IC50) was 7.8 nM in the test on AGS cells (KRAS G12D); 3.2 nM in test [1]; 0.5 nM in the test on SW620 cells (KRAS G12V); 16.8 nM against KRAS G12C-BRAF complex; 0.2 nM in test [2]; 3.9 nM in test [3]. In test [4], this molecule displayed a 50% inhibitory concentration (IC50) of 0.3 nM.

Regarding `CO[C@@H](C)c1ncc(N2CCN(CC(F)(F)F)CC2)cc1-c1c2c3cc(cc4c3n1CCO4)-c1csc(n1)C[C@H](NC(=O)[C@H]1[C@@H]3COC[C@@H]31)C(=O)N1CCC[C@H](N1)C(=O)OCC(C)(C)C2` (atropisomer, axis not shown; (M)) [Example 12, (1S,5R,6r)-N-[(7S,13S)-(20M)-20-[2-[(1S)-1-methoxyethyl]-5-[4-(2,2,2-trifluoroethyl)piperazin-1-yl]-3-pyridyl]-17,17-dimethyl-8,14-dioxo-15,24-dioxa-4-thia-9,21,30,31-tetrazahexacyclo[23.3.1.1^2,5.1^9,13.0^19,27.0^21,26]hentriaconta-1 (28),2,5 (31),19,25 (29),26-hexaen-7-yl]-3-oxabicyclo[3.1.0]hexane-6-carboxamide], the IC50 with AGS cells (KRAS G12D) is 25 nM; in test [1], 12.5 nM; with SW620 cells (KRAS G12V), 2 nM; on KRAS G12C-BRAF complex, 12 nM; in test [2] it was 3.8 nM; in test [3], 2.2 nM. In test [4], inhibition was half-maximal at 1.2 nM (IC50).

As for `CO[C@@H](C)c1ncc(N2CCN(CC(F)(F)F)CC2)cc1-c1c2c3cc(cc4c3n1CCO4)-c1csc(n1)C[C@H](NC(=O)[C@H]1C[C@@H]1c1cccnc1)C(=O)N1CCC[C@H](N1)C(=O)OCC(C)(C)C2` (atropisomer, axis not shown; (M)) [Example 98, (1S,2S)-N-[(7S,13S)-(20M)-20-[2-[(1S)-1-methoxyethyl]-5-[4-(2,2,2-trifluoroethyl)piperazin-1-yl]-3-pyridyl]-17,17-dimethyl-8,14-dioxo-15,24-dioxa-4-thia-9,21,30,31-2,5 9,13 19,27 21,26]hentriaconta-1 (28),2,5 (31),19,25 (29),26-hexaen-tetrazahexacyclo[23.3.1.1″>0.1″>7-yl]-2-(3-pyridyl)cyclopropanecarboxamide], the IC50 was 8.1 nM with AGS cells (KRAS G12D); 4 nM in test [1]; 0.6 nM in the test on SW620 cells (KRAS G12V); 11.1 nM on KRAS G12C-BRAF complex; 0.9 nM in test [2]; 4.6 nM in test [3]. Besides, in test [4], the half-inhibitory concentration (IC50) turned out to be 0.5 nM.

Turning to `CO[C@@H](C)c1ncc(N2CCNCC2)cc1-c1c2c3cc(cc4c3n1CCC4)-c1csc(n1)C[C@H](NC(=O)[C@H]1[C@H](C)[C@@H]1C)C(=O)N1CCC[C@H](N1)C(=O)OCC(C)(C)C2` (atropisomer, axis not shown; (M)) [Example 108, (1r,2R,3S)-N-[(7S,13S)-(20M)-20-[2-[(1S)-1-methoxyethyl]-5-piperazin-1-yl-3-pyridyl]-17,17-dimethyl-8,14-dioxo-15-oxa-4-thia-9,21,30,31-tetrazahexacyclo[23.3.1.1^2,5.1^9,13.0^19,27.0^21,26]hentriaconta-1 (28),2,5 (31), 19,25 (29),26-hexaen-7-yl]-2,3-dimethyl-cyclopropanecarboxamide], the IC50 with AGS cells (KRAS G12D) came to 1.8 nM; in test [1] it was 2.2 nM; in the test with SW620 cells (KRAS G12V), 0.5 nM; on KRAS G12C-BRAF complex, 4.6 nM; in test [2] it was 1.8 nM; in test [3], 3.9 nM. The IC50 in test [4] was found to be 0.5 nM.

Turning to `CO[C@@H](C)c1ncc(N2CCN(CCC(C)(C)OC)CC2)cc1-c1c2c3cc(cc4c3n1CCC4)-c1csc(n1)C[C@H](NC(=O)[C@H]1[C@H](C)[C@@H]1C)C(=O)N1CCC[C@H](N1)C(=O)OCC(C)(C)C2` (atropisomer, axis not shown; (M)) [Example 123, (1r,2R,3S)-N-[(7S,13S)-(20M)-20-[2-[(1S)-1-methoxyethyl]-5-[4-(3-methoxy-3-methyl-butyl)piperazin-1-yl]-3-pyridyl]-17,17-dimethyl-8,14-dioxo-15-oxa-4-thia-9,21,30,31-tetrazahexacyclo[23.3.1.1^2,5.1^9,13.0^19,27.0^21,26]hentriaconta-1 (28),2,5 (31), 19,25 (29),26-hexaen-7-yl]-2,3-dimethyl-cyclopropanecarboxamide], the half-maximal inhibitory concentration (IC50) in the test with AGS cells (KRAS G12D) stood at 5.1 nM; in test [1], 3 nM; with SW620 cells (KRAS G12V) it was 0.6 nM; at KRAS G12C-BRAF complex, 13.7 nM; in test [2], 0.8 nM; in test [3] it was 7.1 nM. Further, the IC50 in test [4] was 0.6 nM.

Turning to `CO[C@@H](C)c1ncc(N2CCN(C3CC3)CC2)cc1-c1c2c3cc(cc4c3n1CCO4)-c1csc(n1)C[C@H](NC(=O)[C@H]1[C@H](C)[C@@H]1C)C(=O)N1CCC[C@H](N1)C(=O)OCC(C)(C)C2` (atropisomer, axis not shown; (M)) [Example 106, (1r,2R,3S)-N-[(7S,13S)-(20M)-20-[5-(4-cyclopropylpiperazin-1-yl)-2-[(1S)-1-methoxyethyl]-3-pyridyl]-17,17-dimethyl-8,14-dioxo-15,24-dioxa-4-thia-9,21,30,31-tetrazahexacyclo[23.3.1.1^2,5.1^9,13.0^19,27.0^21,26]hentriaconta-1 (28),2,5 (31),19,25 (29),26-hexaen-7-yl]-2,3-dimethyl-cyclopropanecarboxamide], the concentration for half-maximal inhibition (IC50) stood at 8.7 nM in the test with AGS cells (KRAS G12D); 4.4 nM in test [1]; 0.4 nM with SW620 cells (KRAS G12V); 10.8 nM against KRAS G12C-BRAF complex; 1.1 nM in test [2]; 3.1 nM in test [3]. In test [4], this molecule yielded an IC50 of 0.4 nM.

The record behind these values is patent US20240417410A1, “TRICYCLIC COMPOUNDS FOR THE TREATMENT OF CANCER” (Hoffmann-La Roche Inc., priority 2023, published 2024).
